# Laboratory results reported in ChEMBL document CHEMBL1157031, “A novel copper complex of salicylaldehyde pyrazole hydrazone induces apoptosis through up-regulating integrin beta4 in H322 lung carcinoma cells” (Eur J Med Chem, 2010).
# The source made the active and inactive calls. The rule behind the calls is not given here.
# What was measured:
# NCI-H1299 = assay: Cytotoxicity against human NCI-H1299 cells after 48 hrs by MTT assay; assay type: functional, cell-based; settings: NCI-H1299, 48 h
# HUVEC = assay: Cytotoxicity against HUVEC cells after 48 hrs by MTT assay; assay type: cell-based; settings: Homo sapiens
# NCI-H322 = assay: Induction of apoptosis in human NCI-H322 cells at 10 uM by Hoechst 33258 staining in presence of CuCl2; assay type: functional, cell-based
# [1] = Cytotoxicity against human NCI-H322 cells after 48 hrs by MTT assay; assay type: functional, cell-based; settings: NCI-H322, 48 h
smiles,measurement,setting,value
CC(C)(C)c1ccc(Cn2nc(-c3ccccc3)cc2C(=O)N/N=C/c2ccccc2O)cc1,IC50,NCI-H1299,5.78 µM
same,IC50,HUVEC,2.23 µM
same,Activity,NCI-H322,Active
same,IC50,[1],4.75 µM
